These results are taken from patent US10172953B2, “XTEN conjugate compositions and methods of making same” (Amunix Operating Inc., priority 2012, dated 2019).

For data set [1], the system named is folate receptor-positive KB cell line. Briefly: CellTiter-Glo anti-proliferation assay on KB cells. The note with it: absence of folic acid competitor, read-out: IC50 (cell killing). In kind it is cell-based. The method, then: The ability to selectively target and kill cells bearing folate receptors was evaluated. Test articles of free MMAE, a non-targeting 3×MMAE-XTEN conjugate (XTEN linked to toxin) and the folate receptor-targeted 3×FA(γ),3×MMAE-XTEN conjugate were evaluated in a CellTiter-Glo anti-proliferation assay using the folate receptor-positive KB cell line. As culture media contain high folic acid content, KB cells were grown in folic acid-free media containing 10% heat-inactivated fetal calf serum at 37° C., 5% C02 for at least 7 days prior to the commencement of the cell viability experiment, This medium was also utilized for the execution of the experiment. In brief, KB cells were plated at 10,000 cells per well onto a 96-well microtiter assay plate. KB cells were allowed to adhere to the plate by an overnight incubation at 37° C., 5% CO2. The spent media was then removed and wells designated to contain folic acid competitor received assay medium containing folic acid, while wells not designated to have folic acid competitor received assay medium only. The plate was incubated for 30 min at 37° C., 5% CO2 before the assay media was aspirated and plate washed with assay media. […] After the appropriate incubation period, CellTiter-Glo reagent was added and the plate was read on a luminometer. The IC50 of each test article was determined using a 4 parameter logistic curve fit using GraphPad Prism.

The conditions of data set [2]: cited from earlier work.
For data set [3] the following is noted: unmodified peptide/protein, humans/patients; cited from earlier work.
The conditions of data set [4]: rats, intravenous administration; cited from earlier work.

Square brackets hold non-standard residues; d marks the D form. Peptide text beside a SMILES is read from it. * marks the point of attachment. Dolaproine = CO[C@@H]([C@@H]1CCCN1)[C@@H](C)C(=O)O; Dil = CC[C@H](C)[C@H](NC)[C@@H](CC(=O)O)OC; X1 = C[C@@H](N*)[C@@H](O)c1ccccc1; NMeV = CN[C@H](C(=O)O)C(C)C

In the case of `CC[C@H](C)[C@@H]([C@@H](CC(=O)N1CCC[C@H]1[C@H](OC)[C@@H](C)C(=O)N[C@H](C)[C@@H](O)c1ccccc1)OC)N(C)C(=O)[C@@H](NC(=O)[C@@H](NC)C(C)C)C(C)C` [MMAE, monomethyl auristatin E] (H-[NMeV]V[Dil][Dolaproine]-X1), in data set [1], the IC50 (usually the concentration at which inhibition is half-maximal) amounted to 0.8 nM. With `CC(C)[C@H]1C(=O)N[C@@H](CCCN=C(N)N)C(=O)NCC(=O)N[C@@H](CC(=O)O)C(=O)N[C@H](Cc2ccccc2)C(=O)N1C` [cilengitide, 2-[(2S,5R,8S,11S)-5-benzyl-11-{3-[(diaminomethylidene)amino]propyl}-7-methyl-3,6,9,12,15-pentaoxo-8-(propan-2-yl)-1,4,7,10,13-pentaazacyclopentadecan-2-yl]acetic acid, reference compound], in data set [2], the “maximum drug concentration (poor solubility)” value is recorded as ≤ 15 mg/mL. In addition, in data set [3], the half-life (as a rule, the time in which the quantity being followed falls by half) was 3 to 5 h.

B1: follistatin: protein encoded by the FST gene (protein, UniProt P19883 30-344, looked up)
Follistatin: GNCWLRQAKNGRCQVLYKTELSKEECCSTGRLSTSWTEEDVNDNTLFKWMIFNGGAPNCIPCKETCENVDCGPGKKCRMNKKNKPRCVCAPDCSNITWKGPVCGLDGKTYRNECALLKARCKEQPELEVQYQGRCKKTCRDVFCPGSSTCVVDQTNNAYCVTCNRICPEPASSEQYLCGNDGVTYSSACHLRKATCLLGRSIGLAYEGKCIKAKSCEDIQCTGGKKCLWDFKVGRGRCSLCDELCPDSKSDEPVCASDNATYASECAMKEAACSSGVLLEVKHSGSCNSISEDTEEEEEDEDQDYSFPISSILEW
For B1, in data set [4], the terminal half-life result is “over 2 hours”.
